Columns and labels:
dogs [1] = assay: Single and repeat-dose toxicology in dogs; assay type: in vivo, dog
Description: In female dogs, ovarian uterine weights were reduced in treated animals. […] Thyroid weights were increased in the high dose group females. No other target organs have been identified.
Epididymides and prostate glands had gained maturity, but aspermia was present in all dogs and testicular immaturity remained. […]

[2] = Pharmacokinetics and metabolism in rats; assay type: in vivo, rat
Method: (§1) At low doses, the estimated Clp of The NK3RA was moderate in rat (8.3 ml/min/kg) and low in the dog (1.2 ml/min/kg). Bioavailability (F) was ˜100% in both species indicating extensive absorption in these species. The volume of distribution (Vz) was moderate (1.6 L·kg in rat and 0.81 L/kg in dog) and consistent with the physico-chemical properties of the compound. […] The NK3RA exposure decreased after multiple dosing in rats, indicating either changes in absorption or induction of The NK3RA metabolism, or both, after multiple dosing. […] T1/2 values ranged from 5.6 hours to 14.3 hours at the end of dosing for dogs dosed at 1000 mg/kg/day (2180 μmol/kg/day). There were no consistent sex differences observed in the exposure to NK3RA in these 2 species.
(§2) Following oral administration of The NK3RA in the rat, a pharmacologically active ketone metabolite appeared rapidly in plasma but slowly reached maximum concentration levels in all animals. […] T1/2 values ranged from 8.51 hours to 13.8 hours on Day 27 and Day 28 for dogs dosed with 1000 mg/kg/day (2180 μmol/kg/day) of the NK3RA. There were no consistent sex differences observed in the exposure to the metabolite in these 2 species.

rat = assay: Rat cocaine drug discrimination assay; assay type: in vivo; conditions: oral doses up to 46 mg/kg
dogs [3] = assay: Dog electrocardiographic (ECG) telemetry study; assay type: in vivo
serum testosterone = assay: SAD and MAD studies, serum testosterone in healthy male volunteers; assay type: in vivo, human
[4] = Pharmacokinetics and metabolism in dogs; assay type: in vivo; conditions: dog
Method: as §1, §2

female rats = assay: Rat female fertility and embryofetal development study; assay type: in vivo
Method: In female rats the No Adverse Effect Dose Level for fetal minor abnormalities and variants was 1000 mg/kg/day.

NK1 = NK1 (Homo sapiens, UniProt P25103); assay: Specificity over other tachykinin receptors (NK1); assay type: binding
rats [5] = assay: Respiratory parameters in rats; assay type: in vivo, rat; conditions: up to 2000 mg/kg (4400 μmol/kg)
hrNK3 receptor = target: T1, hrNK3 receptor (Homo sapiens, UniProt P29371); assay: Intracellular Calcium Mobilisation Assay (hrNK3 CHO-K1 cells, Senktide, FLIPR); assay type: cell-based
T1 construct: expressed in transfected cells; host or cells: CHO-K1
T1 sequence (P29371 1-465): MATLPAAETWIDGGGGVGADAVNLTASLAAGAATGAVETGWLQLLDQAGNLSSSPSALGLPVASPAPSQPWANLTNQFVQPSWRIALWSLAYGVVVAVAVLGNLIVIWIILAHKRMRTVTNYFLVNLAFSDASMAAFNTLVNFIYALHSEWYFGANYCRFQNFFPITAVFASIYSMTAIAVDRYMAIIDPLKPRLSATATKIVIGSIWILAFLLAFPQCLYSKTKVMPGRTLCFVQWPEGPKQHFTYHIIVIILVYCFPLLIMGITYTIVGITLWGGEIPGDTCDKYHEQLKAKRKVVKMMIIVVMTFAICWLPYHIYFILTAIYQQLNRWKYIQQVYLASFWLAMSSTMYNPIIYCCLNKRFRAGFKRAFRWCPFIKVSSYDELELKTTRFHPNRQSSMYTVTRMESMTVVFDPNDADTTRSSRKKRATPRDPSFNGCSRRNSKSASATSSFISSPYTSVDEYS
Method: The activity of a compound in antagonising the hrNK3 receptor expressed in CHO cells may be measured in the following Intracellular Calcium Mobilisation Assay:
CHO-K1 cells stably transfected with human recombinant Neurokinin-3 receptor (hrNK3 CHO-K1) were cultured in […] tissue culture flasks as monolayers in complete Ham's F-12 media (supplemented with 10% (v/v) FBS, 2 mM L-glutamine and […] Hygromycin B). Cultures are maintained under standard tissue culture conditions. For experiments, PBS was used to wash cells free of culture media and Trypsin was used to detach cells from the flask surface. Cells were counted, pelleted by centrifugation (100 g for 5 min) and resuspended in cell plating medium (UltraCULTURE by BioWhittaker 12-725F containing 200 mM L-Glutamine). […]
Changes in intracellular free calcium were measured fluorometrically by loading hrNK3 CHO-K1 in 384-well plates with the calcium sensitive fluorescent dye, Fluo-4AM as described previously (Xiong et. al., Bioorg. Med. Chem. Lett. 2011, 21, 1896). […]
A test compound was pre-dissolved in DMSO and incubated with cells to a final concentration of 0.1% (v/v) DMSO for 15 minutes. Assays were initiated by the addition of Senktide (purchased from Bachem) and the transient increase in Fluo-4-fluorescence monitored using a FLIPR (Fluorometric Imaging Plate Reader, Molecular Devices, Sunnyvale, U.S.A.).

rats [6] = assay: Cardiovascular effects in rats; assay type: in vivo, rat; conditions: 46 mg/kg orally (100 μmol/kg), highest dose tested

Sequence of NK1 (P25103 whole entry): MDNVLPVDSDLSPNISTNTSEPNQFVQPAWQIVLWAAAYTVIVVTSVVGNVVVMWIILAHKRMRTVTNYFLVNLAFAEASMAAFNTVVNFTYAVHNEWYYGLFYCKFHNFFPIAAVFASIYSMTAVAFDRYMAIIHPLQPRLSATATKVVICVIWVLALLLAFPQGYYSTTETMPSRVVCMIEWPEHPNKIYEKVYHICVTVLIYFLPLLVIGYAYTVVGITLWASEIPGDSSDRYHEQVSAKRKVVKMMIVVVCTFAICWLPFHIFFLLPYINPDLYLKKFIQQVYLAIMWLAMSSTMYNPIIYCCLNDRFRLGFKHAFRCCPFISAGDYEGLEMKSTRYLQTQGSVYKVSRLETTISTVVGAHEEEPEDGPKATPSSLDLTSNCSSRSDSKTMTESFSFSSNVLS

SMILES: CC[C@H](NC(=O)c1c(NS(C)(=O)=O)c(-c2ccccc2)nc2ccccc12)c1ccccc1 [NK3RA, 3-(methanesulfonamido)-2-phenyl-N-[(1S)-1-phenylpropyl]quinoline-4-carboxamide]
- NOEL (testis, epididymis and prostate weights) (dogs [1]; dog): no NOEL was established
- plasma testosterone levels throughout the study (dogs [1]; dog): virtually totally suppressed
- testes weights following the recovery period (dogs [1]; dog): only partially returned to control values
- time after dosing by which plasma testosterone was very low (dogs [1]; dog): ≤ 4 h
- hepatobiliary toxicity (dogs [1]; dogs): hepatobiliary toxicity in one high dose male
- thyroid weights (dogs [1]; dogs, high dose group females): increased
- liver weights (dogs [1]; dogs, mid and high doses): Increased
- tolerability, multiple dosing for three month (dogs [1]; dogs, up to 1000 mg/kg/day): well tolerated
- tolerability, single dosing (dogs [1]; dogs, up to the limit dose of 2000 mg/kg): well tolerated
- female reproductive findings, 3-month study (dogs [1]; female dogs): reductions in ovarian and uterine weights and an increased incidence of anestrus
- ovarian uterine weights (dogs [1]; female dogs): reduced
- recovery of female reproductive findings (dogs [1]; female dogs, following 3 months off-dose): complete recovery
- target organs in males (dogs [1]; male dogs): the testis, epididymis, and prostate were target organs
- clearance ([2]; plasma, rat, low doses, estimated, read-out: Clp): 8.3 mL/min/kg
- volume of distribution (Vz) ([2]; rat): 1.6 L/kg
- rate of absorption ([2]; rat, oral administration): absorbed at a moderate rate
- bioavailability ([2]; rat, plasma, oral, read-out: Bioavailability (F)): ~100%
- half-life ([2]; rat, plasma, read-out: elimination half-life (T½) (converted)): 3.2 h
- exposure after multiple dosing ([2]; rats): decreased
- activity in cocaine drug discrimination (rat): no activity
- effect on blood pressure (dogs [3]): no effect
- other ECG parameters including QTc interval duration (dogs [3]): No other ECG parameter, including QTc interval duration, was affected
- reduction in heart rate (dogs [3]; highest dose tested 2000 mg/kg orally, transient, dose-related): up to 29%
- serum testosterone (serum testosterone; healthy male volunteers, SAD 1-80 mg, MAD 5 mg QD to 30 mg BID for up to 6 days): dose dependent reduction in serum testosterone
- durability of total testosterone reduction (serum testosterone; male volunteers and male schizophrenia patients): reductions in total testosterone levels durable up to 28 days
- accumulation after 28-day repeat dosing regimen [4]: no accumulation or reduction
- rate of absorption ([4]; oral administration): more rapidly absorbed
- half-life ([4]; plasma, oral, dogs dosed at 1000 mg/kg/day (2180 μmol/kg/day), read-out: T1/2 at the end of dosing): 5.6 to 14.3 h
- bioavailability ([4]; plasma, oral, read-out: Bioavailability (F)): ~100%
- half-life ([4]; plasma, read-out: elimination half-life (T½) (converted)): 9.5 h
- Vd ([4]; plasma, read-out: volume of distribution (Vz)): 0.81 L/kg
- clearance ([4]; plasma, low doses, estimated, read-out: Clp): 1.2 mL/min/kg
- No Adverse Effect Dose Level for fetal minor abnormalities and variants (female rats; female rats): 1000 mg/kg/day
- estrus cycles, mating performance and fertility (female rats; rat, in vivo): Disturbed estrus cycles were seen with no adverse effects on mating performance or fertility
- specificity for NK3 over NK1 (NK1): greater than 1200 fold
- respiratory parameters (rats [5]): did not affect any respiratory parameters
- activity at the hrNK3 receptor expressed in CHO cells (hrNK3 receptor): antagonist of the hrNK3 receptor
- cardiovascular effects (rats [6]): no cardiovascular effects

Reference: patent publication US9475773B2, “NK3 receptor antagonist compound (NK3RA) for use in a method for the treatment of polycystic ovary syndrome (PCOS)” (ASTRAZENECA AB, priority 2013, dated 2016)
